Values of other authors, collected in patent US20250049818A1, “PRENATAL SUPPLEMENT COMPOSITIONS FOR INCREASING BREASTMILK MICRONUTRIENT LEVELS” (SOCIÉTÉ DES PRODUITS NESTLÉ S.A., priority 2021, published 2025).
Where two headings read alike, the source gives them in different places.

Assays:
[1] = children of developing world, meta-analysis
[2] = daily supplementation during pregnancy only, zinc 30 mg
[3] = 10 mg/day for 120 days, Indian infants aged 6-35 months
[4] = 5 mg/day, Indian infants small for gestational age

## C=C1CC[C@H](O)C/C1=C/C=C1\CCC[C@]2(C)[C@@H]([C@H](C)CCCC(C)C)CC[C@@H]12 [vitamin D3, cholecalciferol]
Two months post-partum, 1,000 IU group
  mean vitamin D activity (VDA) of human milk: 43 IU/L
Two months post-partum, 2,000 IU group
  mean vitamin D activity (VDA) of human milk: 58 IU/L
Two weeks post-partum, 1,000 IU daily oral, 27-36 weeks of gestation
  mean vitamin D activity (VDA) of human milk: 51 IU/L
Two weeks post-partum, 2,000 IU daily oral, 27-36 weeks of gestation
  mean vitamin D activity (VDA) of human milk: 74 IU/L

## [Zn] [zinc]
[1]
  reduced diarrhoea: 18%
[2]; 1 month postpartum
  human milk zinc concentration: 49.3 (31.3-62.1) μmol/L
[2]; 6 months postpartum
  human milk zinc concentration: 15.3 (11.8-27.2) μmol/L
[3]
  reduction in incidence of acute lower respiratory infections: 45%
[4]
  reduction in mortality: 68%
